Experimental data: PubChem BioAssay (NCI)
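Values below derive from 48-hour exposures of cells grown in 96-well plates, with endpoints linearly interpolated between the two concentrations bracketing the appropriate inhibition level. The concentration for 50% growth inhibition is given as GI50. TGI is the concentration that stops growth completely.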

Experiments:
Assay in all cases: DTP human tumour cell line panel, 48 h
[1] = tested on: NCI-H522 lung
[2] = tested on: UACC-257 melanoma
[3] = tested on: BT-549 breast
[4] = tested on: SK-MEL-5 melanoma
[5] = tested on: OVCAR-4 ovarian
[6] = tested on: OVCAR-8 ovarian
[7] = tested on: SF-539 CNS
[8] = tested on: MDA-MB-435
[9] = tested on: RXF 393 renal
[10] = tested on: CCRF-CEM leukemia
[11] = tested on: MDA-MB-231 breast
[12] = tested on: SF-268 CNS
[13] = tested on: SW-620 colon
[14] = tested on: U251 CNS
[15] = tested on: OVCAR-3 ovarian
[16] = tested on: HS 578T breast
[17] = tested on: NCI/ADR-RES ovarian
[18] = tested on: COLO 205 colon
[19] = tested on: TK-10 renal
[20] = tested on: LOX IMVI melanoma
[21] = tested on: UO-31 renal
[22] = tested on: SK-MEL-2 melanoma
[23] = tested on: HCT-116 colon
[24] = tested on: HL-60(TB) leukemia
[25] = tested on: IGROV1 ovarian
[26] = tested on: A498 renal
[27] = tested on: HCT-15 colon
[28] = tested on: A549 NSCLC
[29] = tested on: HCC-2998 colon
[30] = tested on: RPMI-8226 leukemia
[31] = tested on: SF-295 CNS
[32] = tested on: NCI-H226 lung
[33] = tested on: HOP-62 NSCLC
[34] = tested on: SK-OV-3 ovarian
[35] = tested on: SNB-75 CNS
[36] = tested on: T-47D breast
[37] = tested on: K-562 leukemia
[38] = tested on: NCI-H23 lung
[39] = tested on: NCI-H460 lung
[40] = tested on: HOP-92 NSCLC
[41] = tested on: UACC-62 melanoma
[42] = tested on: M14 melanoma
[43] = tested on: SK-MEL-28 melanoma
[44] = tested on: EKVX NSCLC
[45] = tested on: MALME-3M melanoma
[46] = tested on: 786-0 renal
[47] = tested on: SN12C renal
[48] = tested on: KM12 colon
[49] = tested on: SNB-19 CNS
[50] = tested on: MOLT-4 leukemia
[51] = tested on: ACHN renal
[52] = tested on: OVCAR-5 ovarian
[53] = tested on: SR leukemia
[54] = tested on: MCF7 breast
[55] = tested on: HT29 colon
[56] = tested on: DU-145 prostate
[57] = tested on: PC-3 prostate

CCNCCCn1c2c(c3ccc(F)cc3c1=O)C(=O)c1cc(OC)cnc1-2
GI50 [1]: 0.0562 µM | TGI [1]: 1.02 µM | GI50 [2]: 0.403 µM | TGI [2]: 2.16 µM | GI50 [3]: 0.936 µM | TGI [3]: 5.14 µM | GI50 [4]: 0.254 µM | TGI [4]: 1.06 µM | GI50 [5]: 0.46 µM | TGI [5]: 11 µM | GI50 [6]: 0.183 µM | TGI [6]: 0.992 µM | GI50 [7]: 0.32 µM | TGI [7]: 1.39 µM | GI50 [8]: 0.477 µM | TGI [8]: 2.13 µM | GI50 [9]: 0.26 µM | TGI [9]: 0.922 µM | GI50 [10]: 0.164 µM | TGI [10]: 1.12 µM | GI50 [11]: 0.404 µM | TGI [11]: 1.93 µM | GI50 [12]: 0.386 µM | TGI [12]: 10.9 µM | GI50 [13]: 0.17 µM | TGI [13]: 5.55 µM | GI50 [14]: 0.1 µM | TGI [14]: 0.506 µM | GI50 [15]: 0.282 µM | TGI [15]: 2.14 µM | GI50 [16]: 1.62 µM | TGI [16]: 13.5 µM | GI50 [17]: 0.374 µM | TGI [17]: 4.89 µM | GI50 [18]: 0.0688 µM | TGI [18]: 1.16 µM | GI50 [19]: 0.296 µM | TGI [19]: 1.67 µM | GI50 [20]: 0.141 µM | TGI [20]: 0.319 µM | GI50 [21]: 0.123 µM | TGI [21]: 0.568 µM | GI50 [22]: 1.13 µM | TGI [22]: 4.12 µM | GI50 [23]: 0.136 µM | TGI [23]: 0.55 µM | GI50 [24]: 0.202 µM | TGI [24]: 0.644 µM | GI50 [25]: 0.33 µM | TGI [25]: 4.49 µM | GI50 [26]: 0.248 µM | TGI [26]: 1.35 µM | GI50 [27]: 0.228 µM | TGI [27]: 3.32 µM | GI50 [28]: 0.0643 µM | TGI [28]: 0.256 µM | GI50 [29]: 1.06 µM | TGI [29]: 2.5 µM | GI50 [30]: 0.144 µM | TGI [30]: 0.692 µM | GI50 [31]: 0.194 µM | TGI [31]: 0.721 µM | GI50 [32]: 0.144 µM | TGI [32]: 0.327 µM | GI50 [33]: 0.149 µM | TGI [33]: 0.472 µM | GI50 [34]: 0.221 µM | TGI [34]: 0.752 µM | GI50 [35]: 0.364 µM | TGI [35]: 5.03 µM | GI50 [36]: 0.145 µM | TGI [36]: 0.761 µM | GI50 [37]: 0.206 µM | TGI [37]: 1.68 µM | GI50 [38]: 0.302 µM | TGI [38]: 1.54 µM | GI50 [39]: 0.0457 µM | TGI [39]: 0.222 µM | GI50 [40]: 0.36 µM | TGI [40]: 4.39 µM | GI50 [41]: 0.341 µM | TGI [41]: 1.85 µM | GI50 [42]: 0.336 µM | TGI [42]: 1.72 µM | GI50 [43]: 1.23 µM | TGI [43]: 3.45 µM | GI50 [44]: 0.328 µM | TGI [44]: 2.78 µM | GI50 [45]: 0.329 µM | TGI [45]: 1.44 µM | GI50 [46]: 0.195 µM | TGI [46]: 0.755 µM | GI50 [47]: 0.151 µM | TGI [47]: 0.763 µM | GI50 [48]: 0.259 µM | TGI [48]: 10 µM | GI50 [49]: 0.16 µM | TGI [49]: 1.26 µM | GI50 [50]: 0.0485 µM | TGI [50]: 0.369 µM | GI50 [51]: 0.127 µM | TGI [51]: 0.371 µM | GI50 [52]: 0.331 µM | TGI [52]: 1.9 µM | GI50 [53]: 0.127 µM | TGI [53]: 0.978 µM | GI50 [54]: 0.0427 µM | TGI [54]: 2.75 µM | GI50 [55]: 0.147 µM | TGI [55]: 0.86 µM | GI50 [56]: 0.215 µM | TGI [56]: 1.37 µM | GI50 [57]: 0.301 µM | TGI [57]: 10.3 µM
